According to ChEMBL document CHEMBL5696442, “Discovery of type II inhibitors of TGFβ-activated kinase 1 (TAK1) and mitogen-activated protein kinase kinase kinase kinase 2 (MAP4K2)” (J Med Chem, 2015):
The source made the active and inactive calls. No cut-off for these calls is given here.

Columns and labels:
[1] = target: Tyrosine-protein kinase CSK (Homo sapiens, UniProt P41240); assay: Inhibition of CSK ACT labeling site harbouring VSDFGLTKEASSTQDTGKLPVK in human Huh-7 cells at 1 uM by KiNativ Profiling analysis relative to control; type: cell-based
Chain of Tyrosine-protein kinase CSK (P41240 2-450 limits assumed): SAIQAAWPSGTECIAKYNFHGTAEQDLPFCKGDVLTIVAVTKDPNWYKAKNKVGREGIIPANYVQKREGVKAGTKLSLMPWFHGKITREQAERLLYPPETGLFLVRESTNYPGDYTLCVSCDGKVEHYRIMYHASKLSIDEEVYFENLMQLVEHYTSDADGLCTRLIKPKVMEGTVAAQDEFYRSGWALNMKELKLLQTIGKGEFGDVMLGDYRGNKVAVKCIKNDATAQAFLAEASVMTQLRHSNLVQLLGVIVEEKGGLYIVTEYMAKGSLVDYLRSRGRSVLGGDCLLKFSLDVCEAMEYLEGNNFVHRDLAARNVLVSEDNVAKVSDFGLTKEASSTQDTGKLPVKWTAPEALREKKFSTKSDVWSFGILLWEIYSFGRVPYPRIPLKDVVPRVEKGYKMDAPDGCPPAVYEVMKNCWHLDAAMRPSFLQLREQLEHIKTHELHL

[2] = target: Serine/threonine-protein kinase BRSK2 (Homo sapiens) (UniProt Q8IWQ3); assay: Inhibition of BRSK2 (unknown origin) at 10 uM by Ambit Kinomescan binding assay
[3] = target: Casein kinase II subunit alpha (Homo sapiens) (UniProt P68400); assay: Inhibition of CSNK2A1 (unknown origin) at 10 uM by Ambit Kinomescan binding assay
Chain of Casein kinase II subunit alpha (Homo sapiens) (P68400 whole entry, looked up, the tested form may be a part): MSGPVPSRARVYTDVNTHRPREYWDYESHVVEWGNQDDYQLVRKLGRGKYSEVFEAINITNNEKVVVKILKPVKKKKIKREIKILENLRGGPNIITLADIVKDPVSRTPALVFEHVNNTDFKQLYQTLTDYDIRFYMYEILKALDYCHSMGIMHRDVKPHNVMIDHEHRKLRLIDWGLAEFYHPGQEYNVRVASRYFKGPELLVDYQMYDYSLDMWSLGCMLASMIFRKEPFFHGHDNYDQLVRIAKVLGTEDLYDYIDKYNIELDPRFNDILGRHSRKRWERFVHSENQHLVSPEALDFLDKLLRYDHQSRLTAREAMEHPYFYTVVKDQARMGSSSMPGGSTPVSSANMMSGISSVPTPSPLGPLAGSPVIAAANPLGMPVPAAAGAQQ

[4] = target: Ribosomal protein S6 kinase alpha-2 (Homo sapiens) (UniProt Q15349); assay: Inhibition of C-terminal RPS6KA2 kinase domain 2 (unknown origin) at 10 uM by Ambit Kinomescan binding assay
Chain of Ribosomal protein S6 kinase alpha-2 (Homo sapiens) (Q15349 whole entry, the tested form may be a part): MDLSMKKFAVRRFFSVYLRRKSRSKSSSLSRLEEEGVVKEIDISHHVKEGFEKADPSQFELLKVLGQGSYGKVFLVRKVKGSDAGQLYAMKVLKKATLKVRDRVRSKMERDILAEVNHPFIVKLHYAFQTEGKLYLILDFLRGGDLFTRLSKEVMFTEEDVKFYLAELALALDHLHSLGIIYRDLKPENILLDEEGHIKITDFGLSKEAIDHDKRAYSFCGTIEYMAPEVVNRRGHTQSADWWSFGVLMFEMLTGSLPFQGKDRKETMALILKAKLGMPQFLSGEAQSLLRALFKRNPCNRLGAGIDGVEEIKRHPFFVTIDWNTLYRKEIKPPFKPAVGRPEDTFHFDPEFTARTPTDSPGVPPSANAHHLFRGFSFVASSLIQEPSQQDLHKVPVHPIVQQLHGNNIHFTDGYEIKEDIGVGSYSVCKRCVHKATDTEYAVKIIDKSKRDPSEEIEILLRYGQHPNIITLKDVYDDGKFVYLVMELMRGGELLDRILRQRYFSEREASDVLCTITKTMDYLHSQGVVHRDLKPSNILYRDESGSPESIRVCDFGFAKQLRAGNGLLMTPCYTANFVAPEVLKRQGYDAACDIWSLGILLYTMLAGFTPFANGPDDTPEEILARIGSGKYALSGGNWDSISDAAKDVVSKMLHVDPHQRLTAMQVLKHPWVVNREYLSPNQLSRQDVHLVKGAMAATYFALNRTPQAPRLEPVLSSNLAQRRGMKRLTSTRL

[5] = target: Ribosomal protein S6 kinase alpha-1 (Homo sapiens) (UniProt Q15418); assay: Inhibition of RSK1 Domain 2 K2 labeling site in human Huh-7 cells at 10 uM by KiNativ Profiling analysis relative to control; type: cell-based
Chain of Ribosomal protein S6 kinase alpha-1 (Homo sapiens) (Q15418 whole entry, the tested form may be a part): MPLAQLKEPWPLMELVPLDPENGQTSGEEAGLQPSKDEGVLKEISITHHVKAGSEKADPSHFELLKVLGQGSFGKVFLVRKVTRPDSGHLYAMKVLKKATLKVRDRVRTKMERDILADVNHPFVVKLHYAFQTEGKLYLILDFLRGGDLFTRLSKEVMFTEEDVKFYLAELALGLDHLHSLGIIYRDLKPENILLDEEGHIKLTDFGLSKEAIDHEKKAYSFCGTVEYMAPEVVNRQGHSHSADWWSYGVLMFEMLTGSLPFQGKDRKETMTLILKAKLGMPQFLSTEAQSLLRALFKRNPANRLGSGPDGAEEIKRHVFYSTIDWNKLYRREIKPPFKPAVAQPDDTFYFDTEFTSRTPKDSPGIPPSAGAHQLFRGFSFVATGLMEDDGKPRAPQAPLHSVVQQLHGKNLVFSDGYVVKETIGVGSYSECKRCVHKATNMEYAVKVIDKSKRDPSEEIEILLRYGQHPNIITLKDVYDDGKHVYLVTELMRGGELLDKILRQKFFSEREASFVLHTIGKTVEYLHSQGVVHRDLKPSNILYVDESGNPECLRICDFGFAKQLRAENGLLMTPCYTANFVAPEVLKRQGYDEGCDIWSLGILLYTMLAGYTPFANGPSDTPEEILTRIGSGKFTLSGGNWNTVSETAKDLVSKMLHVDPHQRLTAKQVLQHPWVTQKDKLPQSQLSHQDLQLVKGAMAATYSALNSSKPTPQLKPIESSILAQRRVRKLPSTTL

[6] = target: Tyrosine-protein kinase JAK1 (Homo sapiens) (UniProt P23458); assay: Inhibition of JAK1 Domain 2 ACT labeling site in human Huh-7 cells at 10 uM by KiNativ Profiling analysis relative to control; type: cell-based
Chain of Tyrosine-protein kinase JAK1 (Homo sapiens) (P23458 whole entry, the tested form may be a part): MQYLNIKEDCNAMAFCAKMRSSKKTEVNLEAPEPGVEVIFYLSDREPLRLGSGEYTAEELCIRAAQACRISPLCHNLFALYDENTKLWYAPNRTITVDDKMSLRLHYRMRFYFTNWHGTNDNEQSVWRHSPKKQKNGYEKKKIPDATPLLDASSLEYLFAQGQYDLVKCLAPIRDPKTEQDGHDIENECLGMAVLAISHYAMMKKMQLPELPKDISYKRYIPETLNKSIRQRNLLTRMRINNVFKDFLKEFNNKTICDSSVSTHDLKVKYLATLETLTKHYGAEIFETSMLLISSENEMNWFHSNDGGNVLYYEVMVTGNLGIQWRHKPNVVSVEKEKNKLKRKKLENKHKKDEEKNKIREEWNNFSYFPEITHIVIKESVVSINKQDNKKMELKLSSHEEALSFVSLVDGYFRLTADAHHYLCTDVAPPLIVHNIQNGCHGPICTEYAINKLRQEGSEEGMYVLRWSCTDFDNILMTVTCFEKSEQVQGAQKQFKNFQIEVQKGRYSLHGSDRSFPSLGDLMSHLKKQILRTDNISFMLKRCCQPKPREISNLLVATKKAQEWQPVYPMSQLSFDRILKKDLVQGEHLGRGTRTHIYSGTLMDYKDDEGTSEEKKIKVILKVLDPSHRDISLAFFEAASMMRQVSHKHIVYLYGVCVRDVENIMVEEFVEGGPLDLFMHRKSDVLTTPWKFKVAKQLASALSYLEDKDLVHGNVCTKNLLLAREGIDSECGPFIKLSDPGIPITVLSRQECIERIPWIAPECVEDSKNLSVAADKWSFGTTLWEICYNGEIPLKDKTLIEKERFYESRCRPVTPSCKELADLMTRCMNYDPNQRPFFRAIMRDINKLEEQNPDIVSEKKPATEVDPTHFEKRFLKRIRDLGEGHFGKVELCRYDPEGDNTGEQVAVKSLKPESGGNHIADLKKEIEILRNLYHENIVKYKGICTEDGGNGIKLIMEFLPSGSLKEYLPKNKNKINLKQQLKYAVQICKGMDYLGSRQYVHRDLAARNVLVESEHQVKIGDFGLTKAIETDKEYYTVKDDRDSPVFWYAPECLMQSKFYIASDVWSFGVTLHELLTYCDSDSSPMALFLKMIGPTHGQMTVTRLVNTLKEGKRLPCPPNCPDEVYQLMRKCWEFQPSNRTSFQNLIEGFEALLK

[7] = target: T1, Phosphatidylinositol 5-phosphate 4-kinase type-2 alpha (Homo sapiens) (UniProt P48426); assay: Inhibition of PIP5K2A LIP labeling site in human Huh-7 cells at 10 uM by KiNativ Profiling analysis relative to control; type: cell-based
T1 sequence (whole entry): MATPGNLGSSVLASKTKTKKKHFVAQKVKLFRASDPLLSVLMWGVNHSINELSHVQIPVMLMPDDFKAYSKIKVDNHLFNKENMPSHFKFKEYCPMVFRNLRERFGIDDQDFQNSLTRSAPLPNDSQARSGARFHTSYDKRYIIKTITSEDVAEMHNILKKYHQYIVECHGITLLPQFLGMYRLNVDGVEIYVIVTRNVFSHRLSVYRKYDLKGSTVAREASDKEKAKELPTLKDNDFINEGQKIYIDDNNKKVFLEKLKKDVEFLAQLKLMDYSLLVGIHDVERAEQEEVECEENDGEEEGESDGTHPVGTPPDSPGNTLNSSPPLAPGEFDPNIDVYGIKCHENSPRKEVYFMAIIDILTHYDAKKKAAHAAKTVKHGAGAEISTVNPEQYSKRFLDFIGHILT

[8] = target: T2, Serine/threonine-protein kinase D1 (Homo sapiens) (UniProt Q15139); assay: Inhibition of PRKD1 (unknown origin) at 1 uM by Ambit Kinomescan binding assay relative to control
T2 sequence (whole entry): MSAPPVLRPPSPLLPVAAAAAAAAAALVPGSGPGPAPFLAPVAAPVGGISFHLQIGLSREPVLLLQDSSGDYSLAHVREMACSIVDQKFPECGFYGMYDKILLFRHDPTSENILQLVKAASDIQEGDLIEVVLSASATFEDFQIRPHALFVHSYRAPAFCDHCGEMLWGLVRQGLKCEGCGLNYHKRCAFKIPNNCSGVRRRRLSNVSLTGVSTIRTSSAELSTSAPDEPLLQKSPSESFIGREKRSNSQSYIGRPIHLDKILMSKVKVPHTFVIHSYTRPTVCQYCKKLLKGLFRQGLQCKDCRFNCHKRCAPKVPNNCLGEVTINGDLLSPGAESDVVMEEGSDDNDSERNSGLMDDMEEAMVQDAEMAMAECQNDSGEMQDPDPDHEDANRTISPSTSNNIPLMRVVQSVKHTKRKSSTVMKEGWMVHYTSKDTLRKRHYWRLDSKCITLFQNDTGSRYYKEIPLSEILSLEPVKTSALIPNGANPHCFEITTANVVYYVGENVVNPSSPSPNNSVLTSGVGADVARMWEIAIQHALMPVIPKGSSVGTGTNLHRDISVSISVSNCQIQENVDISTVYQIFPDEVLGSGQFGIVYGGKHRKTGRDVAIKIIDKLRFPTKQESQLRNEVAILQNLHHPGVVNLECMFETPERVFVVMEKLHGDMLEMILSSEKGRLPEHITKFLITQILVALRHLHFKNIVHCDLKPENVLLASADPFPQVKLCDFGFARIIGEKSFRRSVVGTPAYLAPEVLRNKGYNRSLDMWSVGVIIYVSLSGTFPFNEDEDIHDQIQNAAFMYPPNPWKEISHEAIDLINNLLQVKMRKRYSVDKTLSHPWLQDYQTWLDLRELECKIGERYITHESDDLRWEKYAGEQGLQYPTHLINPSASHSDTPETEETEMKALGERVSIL

[9] = target: Mitogen-activated protein kinase kinase kinase 1 (Homo sapiens) (UniProt Q13233); assay: Inhibition of MAP3K1 (unknown origin) at 1 uM by Ambit Kinomescan binding assay relative to control; values are per cent of control
[10] = target: Peripheral plasma membrane protein CASK (Homo sapiens) (UniProt O14936); assay: Inhibition of CASK Lys1 labeling site in human Huh-7 cell lysate at 1 uM by KiNativ Profiling analysis relative to control
Chain of Peripheral plasma membrane protein CASK (Homo sapiens) (O14936 whole entry, looked up): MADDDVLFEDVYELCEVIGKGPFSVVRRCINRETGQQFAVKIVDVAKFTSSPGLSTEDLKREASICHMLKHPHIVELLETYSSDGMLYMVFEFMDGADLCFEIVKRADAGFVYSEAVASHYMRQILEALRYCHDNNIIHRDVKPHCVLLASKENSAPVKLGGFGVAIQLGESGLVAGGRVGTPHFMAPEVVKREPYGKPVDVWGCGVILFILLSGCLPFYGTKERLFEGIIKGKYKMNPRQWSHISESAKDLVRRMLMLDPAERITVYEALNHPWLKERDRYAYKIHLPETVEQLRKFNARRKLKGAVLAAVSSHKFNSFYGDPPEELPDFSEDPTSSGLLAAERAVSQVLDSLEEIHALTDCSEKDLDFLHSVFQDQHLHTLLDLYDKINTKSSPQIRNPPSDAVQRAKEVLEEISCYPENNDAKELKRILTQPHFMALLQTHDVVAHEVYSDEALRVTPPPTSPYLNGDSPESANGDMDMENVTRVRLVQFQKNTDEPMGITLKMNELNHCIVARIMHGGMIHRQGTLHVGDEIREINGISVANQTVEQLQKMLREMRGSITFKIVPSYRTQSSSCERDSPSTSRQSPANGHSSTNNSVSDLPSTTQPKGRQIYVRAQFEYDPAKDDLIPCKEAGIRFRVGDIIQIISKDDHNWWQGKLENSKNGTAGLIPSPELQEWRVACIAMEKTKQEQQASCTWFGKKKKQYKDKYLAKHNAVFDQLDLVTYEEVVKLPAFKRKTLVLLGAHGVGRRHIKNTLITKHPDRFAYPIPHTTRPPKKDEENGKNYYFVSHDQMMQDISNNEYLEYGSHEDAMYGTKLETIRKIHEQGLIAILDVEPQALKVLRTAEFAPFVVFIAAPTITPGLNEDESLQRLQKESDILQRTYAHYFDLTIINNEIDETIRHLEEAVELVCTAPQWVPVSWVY

For CCN1CCN(Cc2ccc(NC(=O)c3ccc(C)c(Oc4ccnc5[nH]ccc45)c3)cc2C(F)(F)F)CC1, the inhibition [1] was 2.4%, the inhibition [2] was “inactive” and the inhibition [3] was “inactive”. For the same compound, the inhibition [4] was “inactive”, the inhibition [5] was 8% and the inhibition [6] was 41.1%. For the same compound, the inhibition [7] was 0%.
CCN1CCN(Cc2ccc(NC(=O)c3ccc(C)c(/C=C/c4cnc5[nH]ccc5c4OC)c3)cc2C(F)(F)F)CC1 showed an inhibition [8] of 100% and a residual activity [9] of 100%.
In the case of CNc1cc(Oc2cc(C(=O)Nc3cc(N4CCN(C)CC4)cc(C(F)(F)F)c3)ccc2C)ncn1, the inhibition [10] is reported as -8.9%.
